According to PubChem BioAssay (NCI):
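Five compound concentrations were applied to cells in 96-well plates for 48 hours; endpoints were derived by simple linear interpolation of the resulting dose-response curve. At the TGI there is no net growth.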

Key:
Test in all cases: NCI-60 cell line screen, 48 h
786-0 renal = system: 786-0 renal
A498 renal = system: A498 renal
A549 NSCLC = system: A549 NSCLC
ACHN renal = system: ACHN renal
CAKI-1 renal = system: CAKI-1 renal
CCRF-CEM leukemia = system: CCRF-CEM leukemia
COLO 205 colon = system: COLO 205 colon
DLD-1 colon = system: DLD-1 colon
DMS 114 small cell lung = system: DMS 114 small cell lung
DMS 273 small cell lung = system: DMS 273 small cell lung
EKVX NSCLC = system: EKVX NSCLC
HCC-2998 colon = system: HCC-2998 colon
HCT-116 colon = system: HCT-116 colon
HCT-15 colon = system: HCT-15 colon
HL-60(TB) leukemia = system: HL-60(TB) leukemia
HOP-18 NSCLC = system: HOP-18 NSCLC
HOP-62 NSCLC = system: HOP-62 NSCLC
HOP-92 NSCLC = system: HOP-92 NSCLC
HT29 colon = system: HT29 colon
IGROV1 ovarian = system: IGROV1 ovarian
K-562 leukemia = system: K-562 leukemia
KM12 colon = system: KM12 colon
KM20L2 colon = system: KM20L2 colon
LXFL 529 NSCLC = system: LXFL 529 NSCLC
M14 melanoma = system: M14 melanoma
M19-MEL melanoma = system: M19-MEL melanoma
MALME-3M melanoma = system: MALME-3M melanoma
MOLT-4 leukemia = system: MOLT-4 leukemia
NCI-H226 lung = system: NCI-H226 lung
NCI-H23 lung = system: NCI-H23 lung
NCI-H460 lung = system: NCI-H460 lung
NCI-H522 lung = system: NCI-H522 lung
OVCAR-3 ovarian = system: OVCAR-3 ovarian
OVCAR-4 ovarian = system: OVCAR-4 ovarian
OVCAR-5 ovarian = system: OVCAR-5 ovarian
OVCAR-8 ovarian = system: OVCAR-8 ovarian
RPMI-8226 leukemia = system: RPMI-8226 leukemia
RXF 393 renal = system: RXF 393 renal
SF-268 CNS = system: SF-268 CNS
SF-295 CNS = system: SF-295 CNS
SF-539 CNS = system: SF-539 CNS
SK-MEL-2 melanoma = system: SK-MEL-2 melanoma
SK-MEL-28 melanoma = system: SK-MEL-28 melanoma
SK-MEL-5 melanoma = system: SK-MEL-5 melanoma
SK-OV-3 ovarian = system: SK-OV-3 ovarian
SN12C renal = system: SN12C renal
SNB-19 CNS = system: SNB-19 CNS
SNB-75 CNS = system: SNB-75 CNS
SNB-78 CNS = system: SNB-78 CNS
SR leukemia = system: SR leukemia
SW-620 colon = system: SW-620 colon
U251 CNS = system: U251 CNS
UACC-257 melanoma = system: UACC-257 melanoma
UACC-62 melanoma = system: UACC-62 melanoma
UO-31 renal = system: UO-31 renal
LOX IMVI melanoma = system: LOX IMVI melanoma
TK-10 renal = system: TK-10 renal
XF 498 CNS = system: XF 498 CNS

Measured: TGI

CCCCCCCCCCCC(=O)OCC1OC(n2cc(F)c(=O)[nH]c2=O)C(N)C(O)C1O (centres undefined)
not listed: LOX IMVI melanoma | TK-10 renal | XF 498 CNS
> 100 µM: all other assays above

CCOC(=O)C1C(c2ccc([N+](=O)[O-])cc2)NC(c2ccc([N+](=O)[O-])cc2)C(C(=O)OC)S1(=O)=O (centres undefined)
not listed: A498 renal | HOP-92 NSCLC | SF-539 CNS | SK-MEL-5 melanoma
> 100 µM: all other assays above
